In PMC10454678, “Synthesis of hydroxy benzoin/benzil analogs and investigation of their antioxidant, antimicrobial, enzyme inhibition, and cytotoxic activities” (Turkish Journal of Chemistry, 2021):
≈ marks a conversion by molar mass, not a printed value. Where two headings read alike, the source gives them in different places.

Experiments:
[1] = Ferric reducing antioxidant power (FRAP) assay; details: Trolox equivalents; compounds 2 mg/mL, 30 °C 30 min, 595 nm
acetylcholinesterase = acetylcholinesterase (Homo sapiens, UniProt P22303); test: biochemical; details: Tris-HCl pH 8.0, 25 °C, 405 nm; read-out: AChE IC50 (converted)
[2] = Copper ions reducing activity (CUPRAC); details: Trolox equivalents; 30 min dark, room temperature, 450 nm
butyrylcholinesterase = butyrylcholinesterase (Homo sapiens, UniProt P06276); test: biochemical; details: Tris-HCl pH 8.0, 25 °C, 405 nm; read-out: BChE IC50 (converted)
[3] = DPPH radical scavenging activity; details: 0.1 mM DPPH, 50 min dark, 517 nm
α-glucosidase = test: α-Glucosidase inhibition; format: biochemical; details: PNPG, pH 6.8, 37 °C, 400 nm
Method: It was incubated at 37 °C for 15 min. Similarly, an enzyme-free blank was prepared. The reaction was stopped when sodium carbonate (50 μL, 0.2 M) was added.

[4] = system: Candida albicans ATCC60193; test: MIC, microdilution, C. albicans; format: cell-based; details: Candida albicans, ATCC60193; fungus; YEPD broth, 48 h, 36 °C; read-out: MIC Ca
Bacillus cereus Roma709 = test: MIC, microdilution, B. cereus; format: cell-based; details: Bacillus cereus
[5] = system: Staphylococcus aureus ATCC25923; test: MIC, microdilution, S. aureus; format: cell-based; details: Staphylococcus aureus
[6] = system: Mycobacterium smegmatis ATCC607; test: MIC, microdilution, M. smegmatis; format: cell-based; details: Tub., BHI broth, 36 °C; for MIC: Mycolicibacterium smegmatis, ATCC607, 72 h, read-out: MIC Ms
[7] = system: Yersinia pseudotuberculosis ATCC911; test: microbe, parasite or virus in culture; format: cell-based; details: Yersinia pseudotuberculosis, ATCC911, read-out: MIC Yp
[8] = system: Escherichia coli ATCC 25922; test: MIC, microdilution, E. coli; format: cell-based; details: Escherichia coli
[9] = system: Pseudomonas aeruginosa ATCC27853; test: MIC, microdilution, P. aeruginosa; format: cell-based; details: Pseudomonas aeruginosa, ATCC27853; Gram (-); Mueller-Hinton broth, 18-24 h, 36 °C; read-out: MIC Pa
[10] = system: Enterococcus faecalis ATCC29212; test: MIC, microdilution, E. faecalis; format: cell-based; details: Enterococcus faecalis, ATCC29212; Gram (+); Mueller-Hinton broth, 18-24 h, 36 °C; read-out: MIC Ef
[11] = ATCC25922, Gram (-), Mueller-Hinton broth, 18-24 h, 36 °C, read-out: MIC Ec

butyrylcholinesterase, sequence (P06276 29-602): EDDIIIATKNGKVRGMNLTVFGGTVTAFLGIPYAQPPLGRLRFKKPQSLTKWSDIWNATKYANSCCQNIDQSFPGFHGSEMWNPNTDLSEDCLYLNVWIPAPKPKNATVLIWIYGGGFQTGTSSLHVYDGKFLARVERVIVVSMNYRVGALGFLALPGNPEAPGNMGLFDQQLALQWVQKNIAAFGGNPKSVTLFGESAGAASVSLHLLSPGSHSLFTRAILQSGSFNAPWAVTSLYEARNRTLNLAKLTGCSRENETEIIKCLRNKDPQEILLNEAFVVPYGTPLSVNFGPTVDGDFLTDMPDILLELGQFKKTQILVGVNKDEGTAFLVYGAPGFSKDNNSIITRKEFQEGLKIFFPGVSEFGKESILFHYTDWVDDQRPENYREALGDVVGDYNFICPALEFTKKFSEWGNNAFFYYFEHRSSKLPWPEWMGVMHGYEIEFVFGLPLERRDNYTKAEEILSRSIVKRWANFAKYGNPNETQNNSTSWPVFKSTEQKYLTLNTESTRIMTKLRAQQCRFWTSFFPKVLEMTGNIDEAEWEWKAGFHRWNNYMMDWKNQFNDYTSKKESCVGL
acetylcholinesterase, sequence (P22303 32-614, species assumed): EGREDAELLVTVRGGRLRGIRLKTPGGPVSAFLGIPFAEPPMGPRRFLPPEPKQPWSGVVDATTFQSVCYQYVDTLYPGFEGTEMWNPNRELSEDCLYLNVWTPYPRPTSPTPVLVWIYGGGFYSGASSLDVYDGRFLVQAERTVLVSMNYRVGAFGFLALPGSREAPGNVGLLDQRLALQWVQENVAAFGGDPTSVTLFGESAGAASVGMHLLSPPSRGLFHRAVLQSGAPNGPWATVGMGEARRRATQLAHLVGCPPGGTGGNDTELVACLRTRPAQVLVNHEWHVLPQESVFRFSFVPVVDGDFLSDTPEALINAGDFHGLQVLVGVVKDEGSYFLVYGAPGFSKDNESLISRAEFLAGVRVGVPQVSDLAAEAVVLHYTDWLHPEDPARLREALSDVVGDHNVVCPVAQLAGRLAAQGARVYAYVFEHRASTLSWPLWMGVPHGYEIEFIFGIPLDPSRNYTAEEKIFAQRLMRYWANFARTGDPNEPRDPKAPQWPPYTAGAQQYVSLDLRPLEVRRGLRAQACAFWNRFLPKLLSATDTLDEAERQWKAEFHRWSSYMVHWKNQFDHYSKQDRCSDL

O=C(C(=O)c1cc(OC2O[C@H](CO)[C@@H](O)[C@H](O)[C@H]2O)cc(OC2O[C@H](CO)[C@@H](O)[C@H](O)[C@H]2O)c1)c1ccccc1 (stereo partly drawn) [Compound 23, 1-(3,5-Di-O-β -D-glucopyranosylphenyl)-2-phenylethane-1,2-dione]
FRAP, the iron reducing antioxidant power [1]: 2267.50 ± 24.14 μg/mL trolox/gram DW | IC50 (acetylcholinesterase): 124 µM | CUPRAC, copper reducing antioxidant power [2]: 273.67 ± 27.23 μg/mL trolox/gram DW | IC50 (butyrylcholinesterase): > 1770 µM | DPPH radical scavenging capacity (SC50) [3]: 17.74 ± 0.35 mg/mL | α-Glucosidase IC50 (α-glucosidase): >1000 µg/mL

O=C(C(=O)c1cc(O)cc(O)c1)c1ccccc1 [Compound 10, 1-(3,5-Dihydroxyphenyl)-2-phenylethane-1,2-dione]
MIC [4]: 17 µg/mL (≈ 70.2 µM) | MIC (Bacillus cereus Roma709; ROMA709, Gram (+), Mueller-Hinton broth, 18-24 h, 36 °C, read-out: MIC Bc): 17 µg/mL (≈ 70.2 µM) | FRAP, the iron reducing antioxidant power [1]: 1830 ± 44.8 μg/mL trolox/gram DW | IC50 (acetylcholinesterase): 161 µM | MIC ([5]; ATCC25923, Gram (+), Mueller-Hinton broth, 18-24 h, 36 °C, read-out: MIC Sa): 65 µg/mL (≈ 268 µM) | MIC [6]: 9 to 18 µg/mL (≈ 37.2 to 74.3 µM) | MIC Ms ([6]; 72 h): 17 µg/mL (≈ 70.2 µM) | CUPRAC, copper reducing antioxidant power [2]: 455.00 ± 10.1 μg/mL trolox/gram DW | IC50 (butyrylcholinesterase): > 4130 µM | DPPH radical scavenging capacity (SC50) [3]: 52.10 ± 0.4 mg/mL | MIC [7]: 65 µg/mL (≈ 268 µM) | MIC [8, 11]: 17 µg/mL (≈ 70.2 µM) | α-Glucosidase IC50 (α-glucosidase): 100.08 µg/mL | MIC [9]: 32 µg/mL (≈ 132 µM)

O=C(C(=O)c1cc(O)cc(O)c1)c1cc(O)cc(O)c1 [Compound 14, 1,2-Bis(3,5-dihydroxyphenyl)ethane-1,2-dione]
MIC [4]: 51 µg/mL (≈ 186 µM) | MIC (Bacillus cereus Roma709; ROMA709, read-out: MIC Bc): 102 µg/mL (≈ 372 µM) | FRAP, the iron reducing antioxidant power [1]: 1974 ± 76.9 μg/mL trolox/gram DW | IC50 (acetylcholinesterase): 257 µM | MIC [10]: 51 µg/mL (≈ 186 µM) | MIC [6]: 51 µg/mL (≈ 186 µM) | CUPRAC, copper reducing antioxidant power [2]: 133.33 ± 10.9 μg/mL trolox/gram DW | IC50 (butyrylcholinesterase): > 3650 µM | DPPH radical scavenging capacity (SC50) [3]: 7.38 ± 1.0 mg/mL | MIC [7]: 102 µg/mL (≈ 372 µM) | MIC ([8]; ATCC25922, read-out: MIC Ec): 102 µg/mL (≈ 372 µM) | α-Glucosidase IC50 (α-glucosidase): 87.10 µg/mL | MIC [9]: 51 µg/mL (≈ 186 µM)

[H]/N=C(/N)N[C@H]1[C@H](O)[C@@H](O)[C@H](O[C@@H]2O[C@@H](C)[C@](O)(C=O)[C@H]2O[C@@H]2O[C@@H](CO)[C@H](O)[C@@H](O)[C@@H]2NC)[C@@H](N/C(N)=N\[H])[C@@H]1O [Strep., Streptomycin, reference compound]
MIC [6]: 4 µg/mL (≈ 6.88 µM)

O=C(c1cccc(O)c1)C(O)c1ccccc1 (stereo not drawn) [Compound 1, 2-Hydroxy-1-(3-hydroxyphenyl)-2-phenylethanone]
MIC [4]: 330 µg/mL (≈ 1450 µM) | MIC (Bacillus cereus Roma709; ROMA709, read-out: MIC Bc): 1320 µg/mL (≈ 5780 µM) | FRAP, the iron reducing antioxidant power [1]: 1238 ± 34.7 μg/mL trolox/gram DW | IC50 (acetylcholinesterase): > 4380 µM | MIC [6]: 165 µg/mL (≈ 723 µM) | CUPRAC, copper reducing antioxidant power [2]: 738.33 ± 12.5 μg/mL trolox/gram DW | IC50 (butyrylcholinesterase): 1890 µM | DPPH radical scavenging capacity (SC50) [3]: 15.21 ± 2.1 mg/mL | MIC [7]: 1320 µg/mL (≈ 5780 µM) | MIC [8, 11]: 330 µg/mL (≈ 1450 µM) | α-Glucosidase IC50 (α-glucosidase): 58.16 µg/mL

O=C(c1cc(OC2O[C@H](CO)[C@@H](O)[C@H](O)[C@H]2O)cc(OC2O[C@H](CO)[C@@H](O)[C@H](O)[C@H]2O)c1)C(O)c1ccccc1 (stereo partly drawn) [Compound 17, 2-Hydroxy-1-(3,5-Di-O-β -D-glucopyranosylphenyl)-2-phenylethanone]
FRAP, the iron reducing antioxidant power [1]: 2647.92 ± 31.92 μg/mL trolox/gram DW | IC50 (acetylcholinesterase): > 1760 µM | CUPRAC, copper reducing antioxidant power [2]: 287.40 ± 9.81 μg/mL trolox/gram DW | IC50 (butyrylcholinesterase): > 1760 µM | DPPH radical scavenging capacity (SC50) [3]: 8.22 ± 1.08 mg/mL | α-Glucosidase IC50 (α-glucosidase): 193.40 µg/mL

O=C(c1cc(O)cc(O)c1)C(O)c1cc(O)cc(O)c1 (stereo not drawn) [Compound 7, 1,2-Bis(3,5-dihydroxyphenyl)-2-hydroxyethanone]
MIC [4]: 283 µg/mL (≈ 1020 µM) | MIC (Bacillus cereus Roma709; ROMA709, read-out: MIC Bc): 141 µg/mL (≈ 510 µM) | FRAP, the iron reducing antioxidant power [1]: 1715 ± 96.8 μg/mL trolox/gram DW | IC50 (acetylcholinesterase): 443 µM | MIC [10]: 141 µg/mL (≈ 510 µM) | MIC ([5]; ATCC25923, read-out: MIC Sa): 283 µg/mL (≈ 1020 µM) | MIC [6]: 70 µg/mL (≈ 253 µM) | CUPRAC, copper reducing antioxidant power [2]: 95.00 ± 2.4 μg/mL trolox/gram DW | IC50 (butyrylcholinesterase): > 3620 µM | DPPH radical scavenging capacity (SC50) [3]: 10.85 ± 0.7 mg/mL | MIC [7]: 1140 µg/mL (≈ 4110 µM) | MIC ([8]; ATCC25922, read-out: MIC Ec): 141 µg/mL (≈ 510 µM) | α-Glucosidase IC50 (α-glucosidase): >1000 µg/mL | MIC [9]: 283 µg/mL (≈ 1020 µM)

Cc1cc(C(C)(C)C)c(O)c(C(C)(C)C)c1 [BHT, di-t-butylhydroxytoluene, reference compound]
DPPH radical scavenging capacity (SC50) [3]: 6.47 ± 0.12 mg/mL
